The record followed here is ChEMBL document CHEMBL3124776, “Discovery of novel urea derivatives as dual-target hypoglycemic agents that activate glucokinase and PPARγ” (Eur J Med Chem, 2014).

The source made the active and inactive calls. The rule behind the calls is not given here. Bounds are passed on as bounds.

In data set [1] the target is T1, Peroxisome proliferator-activated receptor gamma (Homo sapiens) (UniProt P37231).
T1 sequence (whole entry): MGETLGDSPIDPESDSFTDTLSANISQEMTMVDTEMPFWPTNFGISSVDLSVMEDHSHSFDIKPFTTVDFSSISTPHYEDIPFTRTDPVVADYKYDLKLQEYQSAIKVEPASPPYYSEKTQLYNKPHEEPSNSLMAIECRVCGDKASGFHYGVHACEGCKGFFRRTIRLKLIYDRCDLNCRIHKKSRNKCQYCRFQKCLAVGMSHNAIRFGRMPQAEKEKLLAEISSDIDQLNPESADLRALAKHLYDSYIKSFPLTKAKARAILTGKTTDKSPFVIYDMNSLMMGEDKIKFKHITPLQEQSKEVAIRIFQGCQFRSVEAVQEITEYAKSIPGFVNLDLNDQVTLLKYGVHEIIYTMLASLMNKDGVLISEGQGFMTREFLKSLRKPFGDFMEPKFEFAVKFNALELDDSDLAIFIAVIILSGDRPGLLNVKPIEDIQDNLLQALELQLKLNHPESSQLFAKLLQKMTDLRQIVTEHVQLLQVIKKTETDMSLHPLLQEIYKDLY
Put plainly: Activation of PPAR-gamma (unknown origin) transfected in human U2OS cells assessed as increase in transcriptional activity at 10^-6 M after 24 hrs by luciferase reporter gene assay relative to rosiglitazone. It is filed as cell-based. A general note: In a reporter assay the amount or activity of a reporter protein is the signal.

In data set [2] the test system is Mus musculus. Briefly: Hypoglycemic activity in ICR mouse assessed as decrease in blood glucose level at 50 mg/kg, po after 4 hrs by OGTT relative to control. Format: functional. More on the design: scale not given: the % may be the effect or the level left.
Data set [3] relates to Mus musculus. Briefly: Hypoglycemic activity in ICR mouse assessed as decrease in blood glucose level at 50 mg/kg, po after 6 hrs by OGTT relative to control. Format: functional. More on the design: scale not given: the % may be the effect or the level left.
Data set [4] concerns Mus musculus. Briefly: Hypoglycemic activity in ICR mouse assessed as reduction of blood glucose AUC (0 to 120 mins) at 50 mg/kg, po qd administered for 3 days followed by glucose challenge for 40 mins on day 3 post last dose by OGTT relative to control. More on the design: scale not given: the % may be the effect or the level left. It is filed as functional.
The species entered for the next data set is Homo sapiens. Put plainly: Selectivity for PPAR-gamma (unknown origin) over PPAR-alpha (unknown origin).
In data set [5] the test system is Mus musculus. Put plainly: Hypoglycemic activity in ICR mouse assessed as decrease in blood glucose level at 50 mg/kg, po after 2 hrs by OGTT relative to control. More on the design: scale not given: the % may be the effect or the level left. It is filed as functional.
For data set [6], the target named is T1, Peroxisome proliferator-activated receptor gamma (Homo sapiens). Put plainly: Activation of PPAR-gamma (unknown origin) transfected in human U2OS cells assessed as increase in transcriptional activity at 10^-6 M after 24 hrs by luciferase reporter gene assay. It is filed as cell-based.
Data set [7] can be described thus: MRT (0 to t) in ICR mouse at 50 mg/kg, po. It is filed as ADME, organism-based. More on the design: dose 50 mg/kg, route oral. The note with it: in vivo.
Data set [8] in a line: Tmax in ICR mouse at 50 mg/kg, po. Conditions: in vivo. More on the design: dose 50 mg/kg, route oral. It is filed as ADME, organism-based.
Data set [9] can be described thus: Cmax in ICR mouse at 50 mg/kg, po. It is filed as ADME, organism-based. More on the design: dose 50 mg/kg, route oral. The note with it: in vivo.
A short description of data set [10]: AUC (0 to t) in ICR mouse at 50 mg/kg, po. It is filed as ADME, organism-based. More on the design: dose 50 mg/kg, route oral. Conditions: plasma.

As to `CC(C)(Oc1ccc(N(CC2CCCCC2)C(=O)Nc2nc3ccccc3s2)cc1)C(=O)O`, in data set [1], the Activity was above 38.8%.

For the molecule `CCCCCN(C(=O)Nc1nc2ccc(C)cc2s1)c1ccc(OC(C)(C)C(=O)O)cc1`, the Activity is 22.6% in the data set on Mus musculus [2], 20% in the data set with Mus musculus [3] and above 38.8% in [1].

On to `C=CCN(C(=O)Nc1nccs1)c1ccc(OC(C)(C)C(=O)OCC)cc1`, for which the Activity in [1] is above 38.8%.

Turning to `CCCCCN(C(=O)Nc1nccs1)c1ccc(OC(C)(C)C(=O)OCC)cc1`, the Activity in the data set on Mus musculus [4] is 10%; in [1], above 38.8%.

As for `CC(C)(Oc1ccc(CCN(CC2CCCCC2)C(=O)Nc2ccc(F)cc2F)cc1)C(=O)O`, the Selectivity ratio in the data set filed under Homo sapiens turned out to be 10.

In the case of `CC(C)Oc1cc(OCCc2ccsc2)cc(C(=O)Nc2ccc(C(=O)O)cn2)c1`, the Activity in the data set with Mus musculus [2] is 41.8%; in the data set on Mus musculus [5] it was 29.7%; in the data set on Mus musculus [3], 24.4%.

Take `CC(C)CCN(C(=O)Nc1nc2ccccc2s1)c1ccc(OC(C)(C)C(=O)O)cc1`: in data set [6], the outcome was Active.

With `CCOC(=O)C(C)(C)Oc1ccc(N(CC=C(C)C)C(=O)Nc2nccs2)cc1`, in data set [6], the result was Active.

With `CCCN(C(=O)Nc1nc2ccc(C)cc2s1)c1ccc(OC(C)(C)C(=O)O)cc1`, in data set [6], the result was Active.

Turning to `CC(C)(Oc1ccc(N(Cc2cccc(F)c2)C(=O)Nc2nc3ccccc3s2)cc1)C(=O)O`, the result in data set [6] was Active.

By MRT last is commonly meant the average time that molecules of a dose stay in the body. In general, Tmax refers to the time from dosing to the highest level. Broadly, the Cmax is the highest concentration seen after dosing. As a reminder, the AUC(0-t) is the area under the concentration-time curve up to a stated or last time point. Turning to `CCCCCN(C(=O)Nc1nccs1)c1ccc(OC(C)(C)C(=O)O)cc1`, the MRT last in [7] is 67.8 min. Also, the Tmax in [8] was 30 min. In addition, the outcome in the data set on Mus musculus [2] and in the data set on Mus musculus [5] was Active. For the same molecule, the figures for the Activity (in the data set with Mus musculus [4]; in data set [1]) were 34.6% and above 38.8%, respectively. This molecule also gave a Cmax in data set [9] of 77.8 µg/mL. Further, in data set [10], the AUC(0-t) came out at 98000 ng·h/mL.

For `CCOC(=O)C(C)(C)Oc1ccc(N(Cc2ccco2)C(=O)Nc2nccs2)cc1`, the result in [6] was Active.
